ChEMBL document CHEMBL1150463, “Identification of simpler analogs of neurotensin(913) which retain antinociceptive activity” (Bioorg Med Chem Lett, 1993)
Where a SMILES comes first, the peptide text is derived from it. [ ]: non-standard residue; d: D form. The star is where a group is joined. Orn = NCCC[C@H](N)C(=O)O; Nva = CCC[C@H](N)C(=O)O; Ahx = NCCCCCC(=O)O; X1 = CC(C)CCO*

Columns and labels:
Mus musculus = experiment: Antinociceptive activity using the mouse phenylquinone writhing assay with i.c.v. administration; assay type: functional
[1] = In vitro affinity for the neurotensin receptor on mouse brain membranes.; assay type: tissue-based

Row | Compound | Ki [1] | ED50 (Mus musculus)
1 | CC[C@H](C)[C@H](NC(=O)[C@H](Cc1ccc(O)cc1)NC(=O)[C@@H]1CCCN1C(=O)[C@@H](N)CCCN=C(N)N)C(=O)O (H-RPYI-OH) | > 1000 nM | >=50 ug mouse-1
2 | CC[C@H](C)[C@H](NC(=O)[C@H](Cc1ccc(O)cc1)NC(=O)[C@@H]1CCCN1C(=O)[C@@H](N)CCCN)C(=O)N[C@@H](CC(C)C)C(=O)O (H-[Orn]PYIL-OH) | 520 nM | 20 ug mouse-1
3 | NC(N)=NCCC[C@H](NC(=O)[C@@H](N)CCCN=C(N)N)C(=O)O (H-Arg-Arg-OH) | > 100000 nM | >50 ug mouse-1
4 | CC[C@H](C)[C@H](NC(=O)[C@@H](N)Cc1ccc(O)cc1)C(=O)O (H-Tyr-Ile-OH) | > 1000 nM | >50 ug mouse-1
5 | H-KPYAL-OH | 4200 nM | >50 ug mouse-1
6 | CC[C@H](C)[C@H](NC(=O)[C@H](Cc1ccc(O)cc1)NC(=O)[C@@H]1CCCN1)C(=O)N[C@@H](CC(C)C)C(=O)O (H-PYIL-OH) | > 1000 nM | >50 ug mouse-1
7 | H-KPAIL-OH | > 10000 nM | >50 ug mouse-1
8 | CC[C@H](C)[C@H](NC(=O)[C@@H](N)Cc1ccc(O)cc1)C(=O)N[C@@H](CC(C)C)C(=O)O | > 10000 nM | >50 ug mouse-1
9 | NC(N)=NCCC[C@H](NC(=O)[C@@H](N)CCCN=C(N)N)C(=O)N1CCC[C@H]1C(=O)O (H-Arg-Arg-Pro-OH) |  | >=500 ug mouse-1
10 | H-KAYIL-OH | > 10000 nM | >50 ug mouse-1
11 | O=C(O)[C@H](Cc1ccc(O)cc1)NC(=O)[C@@H]1CCCN1 (H-Pro-Tyr-OH) | 13000 nM | >50 ug mouse-1
12 | CC[C@H](C)[C@H](NC(=O)[C@H](Cc1ccc(O)cc1)NC(=O)[C@@H]1CCCN1C(=O)[C@@H](N)CCCCN)C(=O)OCCC(C)C (H-KPYI-X1) | > 10000 nM | 
13 | CC[C@H](C)[C@H](NC(=O)[C@H](Cc1ccc(O)cc1)NC(=O)[C@@H]1CCCN1C(=O)CCCCCN)C(=O)N[C@@H](CC(C)C)C(=O)O (H-[Ahx]PYIL-OH) | 1300 nM | 1.3 ug mouse-1
14 | CC[C@H](C)[C@H](N)C(=O)N[C@@H](CC(C)C)C(=O)O (H-Ile-Leu-OH) | > 1000 nM | >50 ug mouse-1
15 | CC[C@H](C)[C@H](NC(=O)[C@H](Cc1ccc(O)cc1)NC(=O)[C@@H]1CCCN1C(=O)[C@H](CCCNC(=N)N)NC(=O)[C@@H](N)CCCNC(=N)N)C(=O)N[C@@H](CC(C)C)C(=O)O |  | 0.092 ug mouse-1

Continued, in another order:

Row | Ki [1] | Compound | ED50 (Mus musculus)
16 | > 10000 nM | H-KPYIA-OH | >50 ug mouse-1
17 | > 10000 nM | NC(N)=NCCC[C@H](N)C(=O)N1CCC[C@H]1C(=O)O (H-Arg-Pro-OH) | >50 ug mouse-1
18 | 4 nM | CC[C@@H](C)[C@H](NC(=O)[C@H](Cc1ccc(O)cc1)NC(=O)[C@@H]1CCCN1C(=O)[C@H](CCCNC(=N)N)NC(=O)[C@@H](N)CCCNC(=N)N)C(=O)N[C@@H](CC(C)C)C(=O)O | 
19 | 5900 nM | H-APYIL-OH | <50 ug mouse-1
20 | > 1000 nM | CC[C@@H](C)[C@H](NC(=O)[C@H](Cc1ccc(O)cc1)NC(=O)[C@@H]1CCCN1)C(=O)O | >50 ug mouse-1
21 | 690 nM | H-KPYIL-OH | 8 ug mouse-1
22 | 73 nM | CC[C@H](C)[C@H](NC(=O)[C@H](Cc1ccc(O)cc1)NC(=O)[C@@H]1CCCN1C(=O)[C@@H](N)CCCN=C(N)N)C(=O)N[C@@H](CC(C)C)C(=O)O | 0.0201 ug mouse-1
23 | 3000 nM | CCC[C@H](N)C(=O)N1CCC[C@H]1C(=O)N[C@@H](Cc1ccc(O)cc1)C(=O)N[C@H](C(=O)N[C@@H](CC(C)C)C(=O)O)[C@@H](C)CC (H-[Nva]PYIL-OH) | >50 ug mouse-1
24 | > 10000 nM | NC(N)=NCCC[C@H](N)C(=O)N1CCC[C@H]1C(=O)N[C@@H](Cc1ccc(O)cc1)C(=O)O (H-Arg-Pro-Tyr-OH) | 55 ug mouse-1
